From patent US20250215029A1 (Recludix Pharma, Inc., priority 2022, published 2025)

Target: T1, pY705-STAT3 in PBMC (Homo sapiens, UniProt P40763)
T1 construct: Cryopreserved Peripheral Blood Mononuclear Cells (PBMC) are from AllCells; host or cells: cryopreserved PBMC
Experiment: MSD-pSTAT-PBMC Assay (pSTAT3, IL-6 stimulated)
Assay type: cell-based
Settings: PBMC, compound 3 hrs, then 10 ng/mL IL-6 for 10 min; Table 115; read-out: STAT3
How it was run: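 Thawed human PBMC rested overnight in IMDM/10% FBS, then got compound for 3 hrs before a 10 min cytokine pulse: 1 ng/mL IL-4 for pSTAT6, 10 ng/mL IL-6 for pSTAT3. Lysates went to MSD sandwich capture on total STAT6 or STAT3 with phospho-specific detection. IC50 came from background-subtracted, DMSO-normalized signal.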

T1 sequence (P40763 whole entry): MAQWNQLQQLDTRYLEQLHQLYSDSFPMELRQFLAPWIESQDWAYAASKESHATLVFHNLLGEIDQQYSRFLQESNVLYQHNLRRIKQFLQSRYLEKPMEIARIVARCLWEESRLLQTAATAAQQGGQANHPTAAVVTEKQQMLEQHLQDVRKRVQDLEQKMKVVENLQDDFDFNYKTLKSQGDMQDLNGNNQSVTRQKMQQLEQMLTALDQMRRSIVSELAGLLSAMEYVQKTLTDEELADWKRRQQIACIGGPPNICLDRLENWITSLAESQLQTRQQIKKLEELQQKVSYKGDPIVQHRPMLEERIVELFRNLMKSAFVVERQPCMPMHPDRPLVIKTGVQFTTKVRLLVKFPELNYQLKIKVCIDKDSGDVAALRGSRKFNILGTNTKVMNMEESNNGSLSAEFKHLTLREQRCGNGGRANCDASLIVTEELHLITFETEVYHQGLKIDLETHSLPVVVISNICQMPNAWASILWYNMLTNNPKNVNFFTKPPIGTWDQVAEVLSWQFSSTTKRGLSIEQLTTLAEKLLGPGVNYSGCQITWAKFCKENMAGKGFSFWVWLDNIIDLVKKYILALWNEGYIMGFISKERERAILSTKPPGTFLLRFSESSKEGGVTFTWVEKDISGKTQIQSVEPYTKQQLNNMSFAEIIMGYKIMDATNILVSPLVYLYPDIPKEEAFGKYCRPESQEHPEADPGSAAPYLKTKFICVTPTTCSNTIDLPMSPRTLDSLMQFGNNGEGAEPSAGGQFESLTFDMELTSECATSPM

SMILES	IC50 [nM]
CC(C)COC(=O)[C@H](C)NP(=O)(Cc1ccc2sc(C(=O)N[C@H]3CCC[C@H]4CC[C@@H](C(=O)N5CC(c6cccnc6)C5)N4C3=O)cc2c1)Oc1ccccc1 (stereo partly drawn) [Compound 259, isobutyl (((2-(((3S,6S,9aS)-5-oxo-3-(3-(pyridin-3-yl)azetidine-1-carbonyl)octahydro-1H-pyrrolo[1,2-a]azepin-6-yl)carbamoyl)benzo [b]thiophen-5-yl)methyl)(phenoxy)phosphoryl)-L-alaninate]	< 100
CCCOC(=O)[C@H](C)NP(=O)(Cc1ccc2sc(C(=O)N[C@H]3CCC[C@H]4CC[C@@H](C(=O)N5CC(c6cncnc6C)C5)N4C3=O)cc2c1)Oc1ccccc1 (stereo partly drawn) [Compound 260, propyl (((2-(((3S,6S,9aS)-3-(3-(4-methylpyrimidin-5-yl)azetidine-1-carbonyl)-5-oxooctahydro-1H-pyrrolo[1,2-a]azepin-6-yl)carbamoyl)benzo [b]thiophen-5-yl)methyl)(phenoxy)phosphoryl)-L-alaninate]	1000 to 3000
CCCOC(=O)[C@H](C)NP(=O)(Oc1ccccc1)C(F)c1ccc2sc(C(=O)N[C@H]3CCC[C@H]4CC[C@@H](C(=O)N5CC(c6cnccc6CC)C5)N4C3=O)cc2c1 (stereo partly drawn) [Compound 261, propyl (((2-(((3S,6S,9aS)-3-(3-(4-ethylpyridin-3-yl)azetidine-1-carbonyl)-5-oxooctahydro-1H-pyrrolo[1,2-a]azepin-6-yl)carbamoyl)benzo [b]thiophen-5-yl)fluoromethyl) (phenoxy)phosphoryl)-L-alaninate]	< 100
CCCOC(=O)CNP(=O)(Cc1ccc2sc(C(=O)N[C@H]3CCC[C@H]4CC[C@@H](C(=O)N5CC(c6cccnc6)C5)N4C3=O)cc2c1)Oc1ccccc1 (stereo partly drawn) [Compound 264, propyl (((2-(((3S,6S,9aS)-5-oxo-3-(3-(pyridin-3-yl)azetidine-1-carbonyl)octahydro-1H-pyrrolo[1,2-a]azepin-6-yl)carbamoyl)benzo [b]thiophen-5-yl)methyl)(phenoxy)phosphoryl)glycinate]	100 to 1000
CCCOC(=O)[C@H](C)NP(=O)(Oc1ccccc1)C(F)c1ccc2sc(C(=O)N[C@H]3CCCC[C@H]4CC[C@@H](C(=O)NCc5cnc6[nH]cnc6c5)N4C3=O)cc2c1 (stereo partly drawn) [Compound 265, propyl (((2-(((3S,6S,10aS)-3-(((3H-imidazo[4,5-b]pyridin-6-yl)methyl)carbamoyl)-5-oxodecahydropyrrolo [1,2-a]azocin-6-yl)carbamoyl)benzo [b]thiophen-5-yl)fluoromethyl) (phenoxy)phosphoryl)-L-alaninate]	100 to 1000
CCCOC(=O)[C@H](C)NP(=O)(Oc1ccccc1)C(F)c1ccc2sc(C(=O)N[C@H]3CCC[C@H]4CC[C@@H](C(=O)N5CC(c6cccc(C#N)n6)C5)N4C3=O)cc2c1 (stereo partly drawn) [Compound 266, propyl (((2-(((3S,6S,9aS)-3-(3-(6-cyanopyridin-2-yl)azetidine-1-carbonyl)-5-oxooctahydro-1H-pyrrolo[1,2-a]azepin-6-yl)carbamoyl)benzo [b]thiophen-5-yl)fluoromethyl) (phenoxy)phosphoryl)-L-alaninate]	< 100
CCCOC(=O)[C@H](C)NP(=O)(Cc1ccc2sc(C(=O)N[C@H]3CCC[C@H]4CC[C@@H](C(=O)N5CC(c6cnccc6C6CC6)C5)N4C3=O)cc2c1)Oc1ccccc1 (stereo partly drawn) [Compound 267, propyl (((2-(((3S,6S,9aS)-3-(3-(4-cyclopropylpyridin-3-yl)azetidine-1-carbonyl)-5-oxooctahydro-1H-pyrrolo[1,2-a]azepin-6-yl)carbamoyl)benzo [b]thiophen-5-yl)methyl)(phenoxy)phosphoryl)-L-alaninate]	< 100
CCCOC(=O)[C@H](C)NP(=O)(Cc1ccc2sc(C(=O)N[C@H]3CCC[C@H]4CC[C@@H](C(=O)N5CC(c6cnccc6Cl)C5)N4C3=O)cc2c1)Oc1ccccc1 (stereo partly drawn) [Compound 268, propyl (((2-(((3S,6S,9aS)-3-(3-(4-chloropyridin-3-yl)azetidine-1-carbonyl)-5-oxooctahydro-1H-pyrrolo[1,2-a]azepin-6-yl)carbamoyl)benzo [b]thiophen-5-yl)methyl)(phenoxy)phosphoryl)-L-alaninate]	100 to 1000
CCCOC(=O)[C@H](C)NP(=O)(Cc1ccc2sc(C(=O)N[C@H]3CCC[C@H]4CC[C@@H](C(=O)N5CC(c6cnc(OC)cc6F)C5)N4C3=O)cc2c1)Oc1ccccc1 (stereo partly drawn) [Compound 271, propyl (((2-(((3S,6S,9aS)-3-(3-(4-fluoro-6-methoxypyridin-3-yl)azetidine-1-carbonyl)-5-oxooctahydro-1H-pyrrolo[1,2-a]azepin-6-yl)carbamoyl)benzo [b]thiophen-5-yl)methyl)(phenoxy)phosphoryl)-L-alaninate]	100 to 1000
CCCOC(=O)[C@H](C)NP(=O)(Cc1ccc2sc(C(=O)N[C@H]3CCC[C@H]4CC[C@@H](C(=O)N5CC(c6cccnc6C(F)F)C5)N4C3=O)cc2c1)Oc1ccccc1 (stereo partly drawn) [Compound 272, propyl (((2-(((3S,6S,9aS)-3-(3-(2-(difluoromethyl)pyridin-3-yl)azetidine-1-carbonyl)-5-oxooctahydro-1H-pyrrolo[1,2-a]azepin-6-yl)carbamoyl)benzo [b]thiophen-5-yl)methyl)(phenoxy)phosphoryl)-L-alaninate]	< 100
CCCOC(=O)[C@H](C)NP(=O)(Oc1ccccc1)C(F)c1ccc2sc(C(=O)N[C@H]3CCC[C@H]4CC[C@@H](C(=O)N5CC(c6cnccc6C#N)C5)N4C3=O)cc2c1 (stereo partly drawn) [Compound 273, propyl (((2-(((3S,6S,9aS)-3-(3-(4-cyanopyridin-3-yl)azetidine-1-carbonyl)-5-oxooctahydro-1H-pyrrolo[1,2-a]azepin-6-yl)carbamoyl)benzo [b]thiophen-5-yl)fluoromethyl) (phenoxy)phosphoryl)-L-alaninate]	100 to 1000
CCCOC(=O)[C@H](C)NP(=O)(Cc1ccc2sc(C(=O)N[C@H]3CCCC[C@H]4CC[C@@H](C(=O)N5CC(c6cnccc6F)C5)N4C3=O)cc2c1)Oc1ccccc1 (stereo partly drawn) [Compound 274, propyl (((2-(((3S,6S,10aS)-3-(3-(4-fluoropyridin-3-yl)azetidine-1-carbonyl)-5-oxodecahydropyrrolo [1,2-a]azocin-6-yl)carbamoyl)benzo [b]thiophen-5-yl)methyl)(phenoxy)phosphoryl)-L-alaninate]	< 100
CCCOC(=O)[C@H](C)NP(=O)(Cc1ccc2sc(C(=O)N[C@H]3CCC[C@H]4CC[C@@H](C(=O)N5CC(c6c(F)ccnc6OC)C5)N4C3=O)cc2c1)Oc1ccccc1 (stereo partly drawn) [Compound 275, propyl (((2-(((3S,6S,9aS)-3-(3-(4-fluoro-2-methoxypyridin-3-yl)azetidine-1-carbonyl)-5-oxooctahydro-1H-pyrrolo[1,2-a]azepin-6-yl)carbamoyl)benzo [b]thiophen-5-yl)methyl)(phenoxy)phosphoryl)-L-alaninate]	> 3000
CC[C@H](C)OC(=O)[C@H](C)NP(=O)(Cc1ccc2sc(C(=O)N[C@H]3CCC[C@H]4CC[C@@H](C(=O)N5CC(c6cccnc6)C5)N4C3=O)cc2c1)Oc1ccccc1 (stereo partly drawn) [Compound 276, (S)-sec-butyl (((2-(((3S,6S,9aS)-5-oxo-3-(3-(pyridin-3-yl)azetidine-1-carbonyl)octahydro-1H-pyrrolo[1,2-a]azepin-6-yl)carbamoyl)benzo [b]thiophen-5-yl)methyl)(phenoxy)phosphoryl)-L-alaninate]	100 to 1000
